Data on ten compounds can be found in ChEMBL document CHEMBL1201862, “PubChem BioAssay data set” (2004).

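Five compound concentrations were applied to cells in 96-well plates for 48 hours; endpoints were derived by simple linear interpolation of the resulting dose-response curve. At the GI50, growth is halved.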 Activity calls are given as the source filed them. No stated cut-off is given here; in the data, active = GI50 up to about 1.1 µM and inactive = higher. Bounds are passed on as bounds.

Assay in all cases: NCI anticancer screen, dose series, 48 h
Test [1] deals with OVCAR-4.
Test [2] relates to UACC-62.
Test [3] deals with UO-31.
The test system of test [4] is MDA-N.
Test [5] relates to SNB-75.
The test system of test [6] is U-251.
Test [7] concerns DU-145.
Test [8] concerns OVCAR-5.
Test [9] relates to TK-10.
Test [10] has as its system HCT-116.
In test [11] the test system is UACC-257.
Test [12] has as its system OVCAR-8.
Test [13] deals with NCI-H522.
The subject of test [14] is SNB-19.
The subject of test [15] is A498.
In test [16] the test system is HCT-15.
Test [17] deals with HOP-92.
Test [18] deals with NCI-H23.
Test [19] relates to SK-MEL-28.

Turning to `NC(=O)C1CCCN1Cc1ccc2c(c1)OCO2` (stereo not given), the GI50 in test [1], in test [2], in test [3], in test [4], in [5] and in test [6] was > 100 µM (inactive) each time. Also, the GI50 in test [7], in test [8], in test [9], in test [10], in test [11] and in [12] was > 100 µM (inactive) each time. The GI50 was > 100 µM (inactive) in [13]; > 100 µM (inactive) in [14]; > 100 µM (inactive) in [15]; > 100 µM in test [16]; > 100 µM (inactive) in [17]; > 100 µM (inactive) in test [18]. In addition, in test [19], the GI50 is > 100 µM (inactive).

On to `O=c1c2ccccc2n2c(-c3ccccc3O)nnc2n1-c1ccccc1`, for which the GI50 was > 100 µM (inactive) in [1]; > 100 µM (inactive) in test [2]; 2.76 µM (inactive) in [3]; > 100 µM (inactive) in test [4]; > 100 µM (inactive) in test [5]; > 100 µM (inactive) in test [6]. For the same compound, the GI50 in test [7], in [8], in [9], in test [10], in test [11] and in test [12] was > 100 µM (inactive) in each case. Also, the GI50 in [13] was > 100 µM (inactive); in test [14], > 100 µM (inactive); in [15], > 100 µM (inactive); in test [16], > 100 µM; in test [17] it was > 100 µM (inactive); in test [18], > 100 µM (inactive). In test [19], the GI50 was > 100 µM (inactive).

Regarding `COC(=O)/C=C/CCC#Cc1ccccc1C#CCC/C=C/C(=O)OC`, the GI50 in [1] is 16.9 µM (inactive); in test [2], 12.6 µM (inactive); in [3], 19.5 µM (inactive); in [4] it was 4.47 µM (inactive); in [5] it was 2.89 µM (inactive); in test [6], 4.32 µM (inactive). The GI50 in test [7] was 32 µM (inactive); in [8], 23.5 µM (inactive); in test [9], 30.7 µM (inactive); in test [10], 3.48 µM (inactive); in test [11], 23.7 µM (inactive); in [12] it was 6.46 µM (inactive). Besides, the GI50 in test [13] is 3.57 µM (inactive); in test [14] it was 4.97 µM (inactive); in test [15], 38.5 µM (inactive); in [16], 3.98 µM; in test [17] it was 15.7 µM (inactive); in test [18] it was 4.78 µM (inactive). For the same compound, the GI50 in [19] is 47.5 µM (inactive).

Regarding `Cc1ccc(/C=N/n2c(-c3ccc(C)cc3)n[nH]c2=O)cc1`, the GI50 in test [1] was 40 µM (inactive); in [2], 78 µM (inactive); in [3] it was 75 µM (inactive); in test [4], 80.7 µM (inactive); in test [5] it was > 100 µM (inactive); in test [6], 35.3 µM (inactive). Further, the GI50 was 91.6 µM (inactive) in [7]; 84.9 µM (inactive) in test [8]; 60.8 µM (inactive) in test [9]; 54 µM (inactive) in test [10]; > 100 µM (inactive) in test [11]; 36.7 µM (inactive) in test [12]. The GI50 was > 100 µM (inactive) in test [13]; 77.4 µM (inactive) in test [14]; 26.9 µM (inactive) in test [15]; 66.7 µM in test [16]; 55.8 µM (inactive) in [17]; 29.2 µM (inactive) in [18]. For the same compound, the GI50 in test [19] was > 100 µM (inactive).

On to `C=Cc1c(C)c2cc3nc(c4c5[nH]c(cc6nc(cc1[nH]2)C(C)=C6CC)c(C)c5C(=O)C4C(=O)OC)C(CCC(=O)OC)C3C` (stereo not given), for which the GI50 in [1], in test [2], in test [3], in [4], in test [5] and in test [6] was > 100 µM (inactive) each time. Further, the GI50 in test [7] is 40.4 µM (inactive); in test [8] it was > 100 µM (inactive); in test [9], > 100 µM (inactive); in test [10] it was > 100 µM (inactive); in test [11], > 100 µM (inactive); in test [12] it was > 100 µM (inactive). The GI50 was > 100 µM (inactive) in test [13]; > 100 µM (inactive) in [14]; > 100 µM (inactive) in [15]; > 100 µM in test [16]; > 100 µM (inactive) in test [17]; > 100 µM (inactive) in test [18]. The GI50 in test [19] is > 100 µM (inactive).

On to `CC(=O)c1c(SCCN2CCCC2)n(-c2ccccc2)c(=S)n(-c2ccccc2)c1=O`, for which the GI50 is 29 µM (inactive) in test [1]; 6.93 µM (inactive) in test [2]; 1.4 µM (inactive) in test [3]; 7.03 µM (inactive) in test [4]; 14.6 µM (inactive) in [5]; 21.1 µM (inactive) in [6]. Moreover, the GI50 in [7] was 2.75 µM (inactive); in [8], 33.7 µM (inactive); in test [9], 3.64 µM (inactive); in [10], 6.73 µM (inactive); in [11] it was 3.46 µM (inactive); in test [12], 9.48 µM (inactive). For the same compound, the GI50 was 2.48 µM (inactive) in test [13]; 28.4 µM (inactive) in [14]; 14.3 µM (inactive) in test [15]; 4.01 µM in test [16]; 3.27 µM (inactive) in [17]; 17.4 µM (inactive) in [18]. The GI50 in test [19] is 6.11 µM (inactive).

As for `C/C(=N\NC(N)=S)c1sc(-n2nc(-c3ccccc3)cc2-c2ccccc2)nc1C`, the GI50 in test [1] was 74.6 µM (inactive); in [2] it was > 100 µM (inactive); in test [3] it was 69.7 µM (inactive); in [4] it was > 100 µM (inactive); in test [5], > 100 µM (inactive); in test [6] it was > 100 µM (inactive). Besides, the GI50 was > 100 µM (inactive) in [7]; > 100 µM (inactive) in test [8]; > 100 µM (inactive) in [9]; 55.8 µM (inactive) in test [10]; 85.5 µM (inactive) in test [11]; > 100 µM (inactive) in [12]. The GI50 in test [13] was 79.4 µM (inactive); in test [14], > 100 µM (inactive); in [15] it was > 100 µM (inactive); in [16], 94.4 µM; in test [17], > 100 µM (inactive); in [18], > 100 µM (inactive). For the same compound, the GI50 in test [19] is > 100 µM (inactive).

On to `COC(=O)[C@@]12C(=O)C(C)C(=O)[C@]1(C)C(C)=C[C@H]1[C@]3(C=O)CC[C@H](OC(C)=O)C(C)(C)[C@H]3CC[C@@]12C` (stereo not given in full), for which the GI50 in test [1], in test [2], in test [3], in [4], in test [5] and in [6] was > 100 µM (inactive) throughout. Also, the GI50 in [7], in [8], in test [9], in test [10], in test [11] and in [12] was > 100 µM (inactive) in each case. For the same compound, the GI50 in test [13] is 51.9 µM (inactive); in [14], > 100 µM (inactive); in [15], > 100 µM (inactive); in test [16] it was > 100 µM; in test [17], > 100 µM (inactive); in [18] it was > 100 µM (inactive). Besides, the GI50 in test [19] was > 100 µM (inactive).

Regarding `CCOC(=O)c1cn2c(n1)sc1cc(OC)ccc12`, the GI50 in test [1] was > 100 µM (inactive); in test [2] it was 8.63 µM (inactive); in [3], 10.9 µM (inactive); in test [4], 2.6 µM (inactive); in test [5], 33.2 µM (inactive); in test [6] it was 2.81 µM (inactive). For the same compound, the GI50 in test [7] is 4.07 µM (inactive); in test [8], 14.7 µM (inactive); in test [9], > 100 µM (inactive); in test [10] it was 5.42 µM (inactive); in [11], 80.9 µM (inactive); in [12], 6.21 µM (inactive). The GI50 is 18 µM (inactive) in test [13]; 9.82 µM (inactive) in test [14]; 46.3 µM (inactive) in [15]; 3.89 µM in test [16]; > 100 µM (inactive) in test [17]; > 47.5 µM (inactive) in test [18]. Moreover, in test [19], the GI50 is > 100 µM (inactive).

With `COC[C@H]1C(=O)NCC(=O)N2N=CCC[C@H]2C(=O)N(O)[C@H](C)C(=O)O[C@@H](C(C)C)[C@H](NC(=O)[C@@](C)(O)[C@]2(O)CC[C@@H](CC(C)C)[C@H](C)O2)C(=O)N2NCCC[C@@H]2C(=O)N1O`, the GI50 in test [1] is 0.0168 µM (active); in test [2], 0.0176 µM (active); in [3], 0.169 µM (active); in [4], 0.018 µM (active); in test [5], < 0.0109 µM (active); in [6], 0.0168 µM (active). For the same compound, the GI50 in test [7] was 0.0343 µM (active); in test [8], 0.0178 µM (active); in test [9], 0.0218 µM (active); in test [10] it was 0.0134 µM (active); in test [11] it was 0.0184 µM (active); in test [12], 0.0185 µM (active). For the same compound, the GI50 in test [13] is 0.0178 µM (active); in test [14], 0.0163 µM (active); in test [15], 0.0412 µM (active); in test [16], 0.12 µM; in [17], 0.0174 µM (active); in test [18] it was 0.0163 µM (active). The GI50 in test [19] is 0.0174 µM (active).
